# PMC11795529, “Simulation of Antral Conditions for Estimating Drug Apparent Equilibrium Solubility after a High-Calorie, High-Fat Meal” (Molecular Pharmaceutics, 2025)
# Where “and” joins values, the source holds several entries; their conditions need not be identical. Equal entries are not always repeated. Where two headings read alike, the source gives them in different places.
# Legend:
# [1] = Shake-flask apparent equilibrium solubility in pooled human antral aspirates (HGFfed) collected after a high-calorie, high-fat meal and water; assay type: physicochemical; settings: pooled antral (gastric) aspirates, fed state
# [2] = cited from earlier work
# physchem = settings: for solubility thermodynamic at 4 h: human, pooled antral (gastric) aspirates, fed state, thermodynamic from solid; for solubility: simple aqueous solution
# [3] = Shake-flask apparent equilibrium solubility in biorelevant media (FeSSGF-V2, FEDGAS pH 3, FeSSGF-V3); assay type: physicochemical
# Description: Biorelevant media were prepared on the day of the solubility measurements.
# FEDGAS1/2 pH = 3 (Level II biorelevance[5]) was prepared as FEDGAS pH = 3 but with half the amount of FEDGASgel, i.e., by using 7.65 g of FEDGASgel/90 mL.
# FEDGAS1/4 pH = 3 (Level II biorelevance[5]) was prepared as FEDGAS pH = 3 but with 1/4 of the amount of FEDGASgel, i.e., by using 3.825 g of FEDGASgel/90 mL.
# FEDGASbuffer pH = 3 (Level I biorelevance[5]) was prepared by diluting FEDGAS buffer concentrate with distilled water, as indicated in Table 3.
# In Level III FeSSGF-V3, the presence of proteins was simulated using Régilait Skimmed Milk Powder. The high-calorie, high-fat meal consists of up to about 1000 kcal and ≈15% of the total amount of calories is derived from proteins.[15],[16] If 1 g of protein corresponds to 4 kcal, then the meal contains up to about 37 g of proteins. Based on phenol red data, after a high-calorie, high-fat meal and a glass of water 30 min after initiation of meal intake, the impact of resting gastric contents/swallowed saliva/gastric secretions on the dilution of antral contents is substantial; however, dilution of contents occurs predominantly during meal administration.[8] Specifically, when 100 mg of phenol red was included in the meal, the mean phenol red concentration in the antrum fluctuated around 0.06 mg/mL for at least 3 h after initiation of meal administration.[6] It can, therefore, be assumed that the protein concentration in the antral region would be about 37 g × (0.06 mg/mL/100 mg) = 0.0222 g/mL ≈ 22 mg/mL. Since Régilait contains 36% w/w proteins, Régilait Skimmed Milk Powder 6.1% w/v in medium is equivalent to 2.196% (w/v) protein concentration, i.e., ≈ 22 mg/mL.
# [4] = cited from earlier work; for Ketoconazole Concentration, Mean: three samples
# [5] = Level III FeSSGF-V3HCl and HGFfed15 sample, 37 °C, shake-flask
# [6] = design: method as in PMID 19644845; settings: cited from earlier work
smiles,measurement,setting,value
CC(=O)N1CCN(c2ccc(OCC3COC(Cn4ccnc4)(c4ccc(Cl)cc4Cl)O3)cc2)CC1 (stereo not drawn) [Ketoconazole],solubility at 4 h,"[1]; 37 °C, plasma or biological fluid, thermodynamic from solid, from the four mean values in HGFfed45, 75, 105, 135, read-out: grand mean apparent solubility in HGFfed",2290 µg/mL
same,solubility thermodynamic at 4 h,"[1]; HGFfed45, 75, 105, 135, 37 °C, 4 h, mean(SD), read-out: mean apparent equilibrium solubility in pooled aspirates, range over the four HGFfed samples",770 to 3670 µg/mL
same,intrinsic aqueous solubility,[2],≈ 2 μg/mL
same,solubility thermodynamic,"physchem; aqueous phase, pH 3.7",1290 µg/mL
same,solubility thermodynamic at 4 h,"physchem; pH 4, plasma or biological fluid",3000 µg/mL
same,solubility thermodynamic at 4 h,"physchem; pH 4.1, plasma or biological fluid",2340 µg/mL
same,solubility thermodynamic at 4 h,"physchem; pH 4.2, plasma or biological fluid",1470 µg/mL
same,solubility thermodynamic at 4 h,"physchem; pH 4.6, plasma or biological fluid",610 µg/mL
same,solubility thermodynamic at 4 h,physchem; plasma or biological fluid,1850 µg/mL
same,solubility,physchem; pH 4,650 µg/mL
same,solubility,physchem; pH 4.1,520 µg/mL
same,solubility,physchem; pH 4.2,410 µg/mL
same,solubility,physchem; pH 4.6,170 µg/mL
same,times higher than the point estimate of intragastric solubility,[3]; FEDGAS1/2 pH = 3 and FEDGAS1/4 pH = 3 vs 3 mg/mL,more than 1.6 times
same,times higher than the point estimate of intragastric solubility,[3]; FEDGAS pH = 3 vs 3 mg/mL,more than 2.5 times
same,percent higher than the point estimate for intragastric solubility,[3]; FEDGASbuffer pH 3 vs 3 mg/mL,50%
same,percent lower than the point estimate for intragastric solubility,[3]; Level I FeSSGF-V2 vs 3 mg/mL,30%
same,solubility thermodynamic at 4 h,"[3]; Level I FeSSGF-V3acetates, pH 3, Level I FeSSGF-V3acetates, initial pH 3, pHeq 3.7",3200 µg/mL
same,percent lower than the point estimate for intragastric solubility,[3]; Level II FeSSGF-V2 vs 3 mg/mL,more than 40%
same,solubility thermodynamic at 4 h,"[3]; Level II FeSSGF-V3acetates, pH 3, Level II FeSSGF-V3acetates, initial pH 3, pHeq 3.7",3450 µg/mL
same,solubility thermodynamic at 4 h,"[3]; Level III FeSSGF-V3HCl, pH 3, Level III FeSSGF-V3HCl, initial pH 3, pHeq 3.8",3730 µg/mL
same,percent higher than the estimated point solubility in antral contents,[3]; Level III FeSSGF-V3 prepared with hydrochloric acid,24%
same,solubility thermodynamic at 4 h,"[3]; biorelevant medium, 37 °C, pH 3, fassgf or other biorelevant, thermodynamic from solid, FEDGAS1/2 pH = 3 (Level II), mean(SD), n = 3",5650 µg/mL
same,solubility thermodynamic at 4 h,"[3]; biorelevant medium, 37 °C, pH 3, fassgf or other biorelevant, thermodynamic from solid, FEDGAS1/4 pH = 3 (Level II), mean(SD), n = 3",5070 µg/mL
same,solubility thermodynamic at 4 h,"[3]; biorelevant medium, 37 °C, pH 3, fassgf or other biorelevant, thermodynamic from solid, FEDGAS pH = 3 (Level II), mean(SD), n = 3",7570 µg/mL
same,solubility thermodynamic at 4 h,"[3]; biorelevant medium, 37 °C, pH 3, fassgf or other biorelevant, thermodynamic from solid, Level II FeSSGF-V2, pH 3, mean(SD), n = 3",1640 µg/mL
same,solubility thermodynamic at 4 h,"[3]; biorelevant medium, pH 3, FEDGASbuffer pH 3 (Level I), mean(SD), n = 3",4600 µg/mL
same,solubility thermodynamic at 4 h,"[3]; biorelevant medium, pH 3, Level I FeSSGF-V2, pH 3, mean(SD), n = 3",2140 µg/mL
same,adsorption on regenerated cellulose filter,[4]; aqueous buffers pH 3.5 to 5,negligible adsorption
same,"Ketoconazole Concentration, Mean","[4]; pH 3.5, 1st filtration",2.8763 mg/mL
same,"Ketoconazole Concentration, Mean","[4]; pH 3.5, 2nd filtration",2.8250 mg/mL
same,% adsorbed,[4]; pH 3.5,1.63%
same,"Ketoconazole Concentration, Mean","[4]; pH 4.0, 1st filtration",0.9297 mg/mL
same,"Ketoconazole Concentration, Mean","[4]; pH 4.0, 2nd filtration",0.9288 mg/mL
same,% adsorbed,[4]; pH 4.0,0.23%
same,"Ketoconazole Concentration, Mean","[4]; pH 5.0, 1st filtration",0.0825 mg/mL
same,"Ketoconazole Concentration, Mean","[4]; pH 5.0, 2nd filtration",0.0775 mg/mL
same,% adsorbed,[4]; pH 5.0,6.16%
same,incubation time within which equilibrium is achieved,[5],≤ 4 h
same,aqueous solubility at pHeq as share of measured apparent solubility,HGFfed45,21%
same,aqueous solubility at pHeq as share of measured apparent solubility,HGFfed75,22%
same,aqueous solubility at pHeq as share of measured apparent solubility,HGFfed105,18%
same,aqueous solubility at pHeq as share of measured apparent solubility,HGFfed135,18%
same,apparent solubility in human antral fluids,"[6]; 30 min after 500 mL Ensure Plus, pHeq 5.7",630 µg/mL
same,apparent solubility in human antral fluids,"[6]; 60 min after 500 mL Ensure Plus, pHeq 5.1",3150 µg/mL
same,apparent solubility in human antral fluids,"[6]; 120 min after 500 mL Ensure Plus, pHeq 4.9",4700 µg/mL
C#C[C@]1(O)CC[C@H]2[C@@H]3CCC4=Cc5oncc5C[C@]4(C)[C@H]3CC[C@@]21C [Danazol],logP,[2],4.53
same,Danazol Concentration,"[4]; Level II FeSSIF, 1st filtration, samples 1, 2, 3 in order",26.61 µg/mL and 26.22 µg/mL and 26.44 µg/mL
same,Danazol Concentration,"[4]; Level II FeSSIF, 2nd filtration, samples 1, 2, 3 in order",26.34 µg/mL and 25.39 µg/mL and 25.44 µg/mL
same,adsorption on regenerated cellulose filter,[4]; Level II FeSSIF,negligible adsorption
same,% adsorbed,"[4]; Level II FeSSIF, samples 1, 2, 3 in order",1.04% and 3.18% and 3.78%
